According to patent EP0906100B1, “USE OF 5-HT 1A? RECEPTOR ANTAGONISTS FOR THE TREATMENT OF URINARY INCONTINENCE” (RECORDATI S.A., priority 1996, dated 1997):

What was measured:
[1] = tested on: rhythmic bladder voiding contractions; test: Volume-induced rhythmic bladder voiding contractions in anaesthetized rats; assay type: in vivo; conditions: for AMPLITUDE mm Hg before treatment / FREQUENCY No. contr./15 min before treatment: baseline; for AMPLITUDE mm Hg before treatment / AMPLITUDE mm Hg after treatment: animals with frequency reduction <50%; for AMPLITUDE mm Hg before treatment / FREQUENCY No. contr./15 min before treatment / AMPLITUDE mm Hg after treatment / FREQUENCY No. contr./15 min after treatment: mean±S.E.; for BLADDER CONTRACTIONS Disappearance time: duration of bladder quiescence, mean (S.E. in next cell)
Experimental: Female Sprague Dawley rats weighing 225-275 g (Crl: CD° BR, Charles River Italia) were used. The animals were housed with free access to food and water and were maintained on a forced 12 h alternating light-dark cycle at 22-24°C for at least one week, except during the experiment. The activity on the rhythmic bladder voiding contractions was evaluated according to the method of Dray (J. Pharmcol. Methods, 13:157, 1985), with some modifications as in Guarneri (Phannacol. Res., 27:173, 1993). […] The catheter was tied in place with a ligature around the external urethral orifice and was connected with conventional pressure transducers (Statham P23 ID/P23 XL). […] The bladder was then filled via the recording catheter by incremental volumes of warm (37°C) saline until reflex bladder voiding contractions occurred (usually 0.8-1.5 ml). Two parameters were recorded from the cystometrogram: the frequency of voiding contractions, calculated by counting the number of peaks/15 min of observation, and the mean amplitude of these contractions (mean height of the peaks in mmHg) in the same time period. For intravenous (i. v. ) injection of bioactive compounds, a PE 50 polyethylene tubing filled with physiological saline was inserted into the jugular vein.
Bioactivity was assessed in individual animals (using 6-10 rats per dose), by recording the number and height of the peaks for 15 min after drug injection and comparing them with those previously recorded for 15 min after the intravenous administration of vehicle alone. […] The statistical significance of changes in frequency and amplitude before and after treatment was assessed by Student's t test for paired data. Changes showing a probability P<0.01 were considered significant.
An all-or-none criterion was also used to compare bioactivity in terms of ED50 values. Rats showing a treatment-related change of ≥30% relative to the basal value were considered to be positive. Quantal dose-response curves and ED50 values were evaluated by the method of Bliss (J. Pharm. Pharmacol., 11:192, 1938).
The rapid distension of the urinary bladder in urethane-anaesthetized rats produced a series of rhythmic bladder voiding contractions whose characteristics have been described (Maggie et al., Brain Res., 380, 83, 1986; Maggi, et al., J. Pharmacol. Exp. Ther., 230, 500, 1984). The frequency of these contractions is related to the sensory afferent arm of reflex micturition and to the integrity of the micturition centre, while their amplitude is a property of the efferent arm of the reflex (Maggi et al., J. Pharmacol. Meth., 15, 157, 1986; Maggi et al., Brain Res.. 415, 1, 1987; Maggi et al., Naun. Schmied. Arch. Pharmacol., 332, 276, 1986; Maggi et al., J. Urol., 136, 696, 1986).

α1-adrenergic receptor = test: [3H]prazosin binding (α1-receptors), rat cerebral cortices; conditions: 0.35 nM [3H]prazosin, read-out: Binding affinity for the α1-adrenergic receptor, Ki
Experimental: [^3H]prazosin binding (α1-receptors):
Rat cerebral cortices were homogenized in 50 volumes of ice-cold 50 mM Tris-HCl pH 7.4. The homogenates were centrifuged at 48,000 x g for 10 minutes, and the pellets were resuspended in the same volume of ice-cold buffer, centrifuged, and resuspended two more times. The final pellets were resuspended in 100 volumes of 50 mM Tris-HCl, pH 7.4, containing 0.1 % ascorbic acid and 10 µM pargyline. […] Non-specific binding was determined in the presence of 10 µM phentolamine. The incubations were terminated by rapid filtration through Whatman GF/B filters using a Brandel cell harvester, after which the filters were washed with 3x3 ml of ice-cold buffer. The radioactivity retained on the filters was determined by liquid scintillation counting.

COc1ccccc1N1CCN(CCN(C(=O)C2CCCCC2)c2ccccn2)CC1 [Compound A, N-{2-[4-(2-methoxyphenyl)-1-piperazinyl]-ethyl}-N-(2-pyridyl)-cyclohexanecarboxamide]
AMPLITUDE mm Hg before treatment ([1]; 1 µg/kg i.v. group): 25.4±2.0 mm Hg
FREQUENCY No. contr./15 min before treatment ([1]; 1 µg/kg i.v. group): 11.7±1.0 No. contr./15 min
AMPLITUDE mm Hg after treatment ([1]; 1 µg/kg i.v.): 23.1±1.9 mm Hg
BLADDER CONTRACTIONS Disappearance time ([1]; 1 µg/kg i.v.): 1.34 min
FREQUENCY No. contr./15 min after treatment ([1]; 1 µg/kg i.v.): 11.6±1.3 No. contr./15 min
AMPLITUDE mm Hg before treatment ([1]; 3 µg/kg i.v. group): 25.1±2.2 mm Hg
FREQUENCY No. contr./15 min before treatment ([1]; 3 µg/kg i.v. group): 11.5±0.7 No. contr./15 min
AMPLITUDE mm Hg after treatment ([1]; 3 µg/kg i.v.): 21.7±2.0 mm Hg
BLADDER CONTRACTIONS Disappearance time ([1]; 3 µg/kg i.v.): 2.15 min
FREQUENCY No. contr./15 min after treatment ([1]; 3 µg/kg i.v.): 9.1±1.0 No. contr./15 min
AMPLITUDE mm Hg before treatment ([1]; 10 µg/kg i.v. group): 26.0±3.8 mm Hg
FREQUENCY No. contr./15 min before treatment ([1]; 10 µg/kg i.v. group): 11.5±1.5 No. contr./15 min
AMPLITUDE mm Hg after treatment ([1]; 10 µg/kg i.v.): 22.3±3.8 mm Hg
BLADDER CONTRACTIONS Disappearance time ([1]; 10 µg/kg i.v.): 8.13 min
FREQUENCY No. contr./15 min after treatment ([1]; 10 µg/kg i.v.): 5.9±1.6 No. contr./15 min
AMPLITUDE mm Hg before treatment ([1]; 30 µg/kg i.v. group): 28.5±2.5 mm Hg
FREQUENCY No. contr./15 min before treatment ([1]; 30 µg/kg i.v. group): 11.8±0.7 No. contr./15 min
AMPLITUDE mm Hg after treatment ([1]; 30 µg/kg i.v.): 25.0±4.0 mm Hg
BLADDER CONTRACTIONS Disappearance time ([1]; 30 µg/kg i.v.): 8.87 min
FREQUENCY No. contr./15 min after treatment ([1]; 30 µg/kg i.v.): 3.8±0.7 No. contr./15 min
AMPLITUDE mm Hg before treatment ([1]; 100 µg/kg i.v. group): 28.0±4.6 mm Hg
FREQUENCY No. contr./15 min before treatment ([1]; 100 µg/kg i.v. group): 12.0±0.9 No. contr./15 min
AMPLITUDE mm Hg after treatment ([1]; 100 µg/kg i.v.): 25.7±2.9 mm Hg
BLADDER CONTRACTIONS Disappearance time ([1]; 100 µg/kg i.v.): 12.56 min
FREQUENCY No. contr./15 min after treatment ([1]; 100 µg/kg i.v.): 4.1±1.1 No. contr./15 min
FREQUENCY No. contr./15 min before treatment ([1]; 300 µg/kg i.v. group): 9.5±0.6 No. contr./15 min
BLADDER CONTRACTIONS Disappearance time ([1]; 300 µg/kg i.v.): 13.37 min
FREQUENCY No. contr./15 min after treatment ([1]; 300 µg/kg i.v.): 2.2±0.5 No. contr./15 min
ED (10 min disappearance of contractions) ([1]; Rattus norvegicus, iv, 10 min, extrapolated dose inducing 10 min of disappearance of the contractions, linear regression): 0.037 mg/kg
maximal change of amplitude of the rhythmic bladder voidings ([1]; i.v., no dose-dependence observed): about 13%
Ki (α1-adrenergic receptor): 296 nM

CCN(CC)CC#CCOC(=O)C(O)(c1ccccc1)C1CCCCC1 (stereo not shown) [Oxybutynin, oxybutynin]
AMPLITUDE mm Hg before treatment ([1]; 30 µg/kg i.v. group): 26.7±2.7 mm Hg
FREQUENCY No. contr./15 min before treatment ([1]; 30 µg/kg i.v. group): 14.8±1.9 No. contr./15 min
AMPLITUDE mm Hg after treatment ([1]; 30 µg/kg i.v.): 23.3±2.5 mm Hg
FREQUENCY No. contr./15 min after treatment ([1]; 30 µg/kg i.v.): 15.5±2.3 No. contr./15 min
AMPLITUDE mm Hg before treatment ([1]; 100 µg/kg i.v. group): 25.0±3.7 mm Hg
FREQUENCY No. contr./15 min before treatment ([1]; 100 µg/kg i.v. group): 13.3±1.1 No. contr./15 min
AMPLITUDE mm Hg after treatment ([1]; 100 µg/kg i.v.): 18.7±2.7 mm Hg
FREQUENCY No. contr./15 min after treatment ([1]; 100 µg/kg i.v.): 14.7±1.0 No. contr./15 min
AMPLITUDE mm Hg before treatment ([1]; 300 µg/kg i.v. group): 20.9±1.7 mm Hg
FREQUENCY No. contr./15 min before treatment ([1]; 300 µg/kg i.v. group): 10.1±0.7 No. contr./15 min
AMPLITUDE mm Hg after treatment ([1]; 300 µg/kg i.v.): 13.6±0.8 mm Hg
FREQUENCY No. contr./15 min after treatment ([1]; 300 µg/kg i.v.): 8.8±0.8 No. contr./15 min
AMPLITUDE mm Hg before treatment ([1]; 1000 µg/kg i.v. group): 20.3±2.4 mm Hg
FREQUENCY No. contr./15 min before treatment ([1]; 1000 µg/kg i.v. group): 9.7±0.8 No. contr./15 min
AMPLITUDE mm Hg after treatment ([1]; 1000 µg/kg i.v.): 11.8±1.2 mm Hg
FREQUENCY No. contr./15 min after treatment ([1]; 1000 µg/kg i.v.): 9.5±0.8 No. contr./15 min
AMPLITUDE mm Hg before treatment ([1]; 3000 µg/kg i.v. group): 18.0±1.4 mm Hg
FREQUENCY No. contr./15 min before treatment ([1]; 3000 µg/kg i.v. group): 10.0±0.7 No. contr./15 min
AMPLITUDE mm Hg after treatment ([1]; 3000 µg/kg i.v.): 10.8±1.0 mm Hg
FREQUENCY No. contr./15 min after treatment ([1]; 3000 µg/kg i.v.): 9.9±1.5 No. contr./15 min
ED50 ([1]; Rattus norvegicus, iv, read-out: ED50 AMPLITUDE (and 95% confidence limits)): 0.24 mg/kg
